Tested on: recombinant rabies virus 1088 strain expressing Gaussia Luciferase (GLuc) (1088/GLuc)
Assay type: cell-based
Conditions: read-out: Anti-rabies activity

Compound	IC50 [µM]
CC(C)CC1C2CNC3(C(=O)NCc4ccc5ccccc5c4)C(C2)CN(Cc2ccccc2)C13 (stereo not shown) [IB-879]	< 5
NC(=O)CCNC(=O)[C@]12NC[C@@H]3C[C@H]1CN(Cc1ccccc1)[C@H]2[C@@H]3CCc1ccccc1 (relative stereo) [IB-535]	10 to 30
CC(C)CC[C@@H]1[C@@H]2CN[C@@]3(C(=O)NCC(C)C)[C@@H](C2)CN(CC(C)C)[C@@H]13 (relative stereo) [IB-378]	< 5
O=C(NCc1ccc(O)cc1)[C@@]12C[C@@H]3CN(Cc4ccccc4)[C@@H]([C@@H]3CN1)[C@H]2Cc1ccccc1 (relative stereo) [IF-494]	10 to 30
CC(C)C[C@@H]1[C@@H]2[C@@H]3CN[C@@]1(C(=O)NCCc1ccccc1)C[C@@H]3CN2Cc1ccc(F)cc1 (relative stereo) [IF-714]	< 5
CCCCCCNC(=O)C12NCC3CC1CN(CCO)C2C3CC(C)C (stereo not shown) [IB-477]	< 5
CC(C)CCN1C[C@H]2C[C@]3(C(=O)NCc4ccc(F)cc4)NC[C@H]2[C@H]1[C@H]3Cc1ccccc1 (relative stereo) [IF-547]	< 5
O=C(NCc1ccc(F)cc1)[C@@]12C[C@@H]3CN(CCO)[C@@H]([C@@H]3CN1)[C@H]2Cc1ccccc1 (relative stereo) [IF-508]	10 to 30
O=C(NCc1ccc(O)cc1)[C@@]12C[C@@H]3CN(Cc4ccc(F)cc4)[C@@H]([C@@H]3CN1)[C@H]2Cc1ccccc1 (relative stereo) [IF-481]	10 to 30
O=C(O)CCN1CC2CC3CNC2(C(=O)NCc2ccc(O)cc2)C1C3CCc1ccccc1 (stereo not shown) [IB-515]	10 to 30
CC(C)CC[C@@H]1[C@@H]2CN[C@@]3(C(=O)NCc4cccc5ccccc45)[C@@H](C2)CN(CC(N)=O)[C@@H]13 (relative stereo) [IB-84]	10 to 30
CC(C)CNC(=O)[C@@]12C[C@@H]3CN(CC4CCCCC4)[C@@H]([C@@H]3CN1)[C@H]2CC(C)C (relative stereo) [IF-742]	10 to 30
CC(C)CCN1CC2CC3CNC2(C(=O)NCc2cccc4ccccc24)C1C3CO (stereo not shown) [IB-426]	< 5
O=C(NCc1ccc(O)cc1)C12NCC3CC1CN(Cc1cccc4ccccc14)C2C3Cc1cccc2ccccc12 (stereo not shown) [IB-417]	10 to 30
CC(C)CC1C2CNC3(C(=O)NCCc4ccccc4)C(C2)CN(CC(C)C)C13 (stereo not shown) [IB-495]	< 5
CC(C)NC(=O)[C@]12NC[C@@H]3C[C@H]1CN(CCCNC(=N)N)[C@H]2[C@@H]3CCc1ccccc1 (relative stereo) [IB-179]	10 to 30
CC(C)CC[C@@H]1[C@@H]2CN[C@@]3(C(=O)NCc4ccc(O)cc4)[C@@H](C2)CN(Cc2ccc(F)cc2)[C@@H]13 (relative stereo) [IB-582]	10 to 30
CC(C)CC1C2C=NC3(C(=O)NCc4ccccc4)C(C2)CN(Cc2cccc(Cl)c2)C13 (stereo not shown) [IIB-84]	< 5
NC(=O)CCNC(=O)C12CC3CN(CCc4ccccc4)C(C3CN1)C2CC(N)=O (stereo not shown) [IF-219]	10 to 30
CCCCCCNC(=O)[C@@]12C[C@@H]3CN(CCC(C)C)[C@@H]([C@@H]3CN1)[C@H]2CC(C)C (relative stereo) [IF-546]	10 to 30
CC(C)C[C@@H]1[C@@H]2[C@@H]3CN[C@@]1(C(=O)NCc1cccc4ccccc14)C[C@@H]3CN2Cc1ccccc1 (relative stereo) [IF-837]	5 to 10
CC(C)CCNC(=O)[C@@]12C[C@@H]3CN(CCO)[C@@H]([C@@H]3CN1)[C@H]2Cc1ccccc1 (relative stereo) [IF-656]	10 to 30

Compound	IC50 [µM]
CC(C)C[C@@H]1[C@@H]2[C@@H]3CN[C@@]1(C(=O)NCc1ccc(O)cc1)C[C@@H]3CN2CCc1ccccc1 (relative stereo) [IF-470]	10 to 30
CC(C)CNC(=O)[C@]12NC[C@@H]3C[C@H]1CN(Cc1ccc(F)cc1)[C@H]2[C@@H]3CCc1ccccc1 (relative stereo) [IB-774]	< 5
O=C(NCc1ccccc1)[C@@]12C[C@@H]3CN(CC4CCCCC4)[C@@H]([C@@H]3CN1)[C@H]2Cc1ccc(O)cc1 (relative stereo) [IF-645]	10 to 30
O=C(NCc1ccccc1)[C@@]12C[C@@H]3CN(Cc4cccc5ccccc45)[C@@H]([C@@H]3CN1)[C@H]2Cc1ccccc1 (relative stereo) [IF-42]	10 to 30
CCCCCCNC(=O)[C@]12NC[C@@H]3C[C@H]1CN(Cc1ccccc1)[C@H]2[C@@H]3Cc1ccccc1 (relative stereo) [IB-562]	10 to 30
CC(C)CC[C@@H]1[C@@H]2[C@@H]3CN[C@@]1(C(=O)NCCc1ccccc1)C[C@@H]3CN2CC(C)C (relative stereo) [IF-727]	< 5
CC(C)CC1C2CNC3(C(=O)NCCC(N)=O)C(C2)CN(Cc2cccc4ccccc24)C13 (stereo not shown) [IB-520]	< 5
CC(C)CCN1C[C@H]2C[C@]3(C(=O)NCc4ccc(O)cc4)NC[C@H]2[C@H]1[C@H]3Cc1ccccc1 (relative stereo) [IF-466]	10 to 30
CC(C)CCNC(=O)[C@]12NC[C@@H]3C[C@H]1CN(CC(N)=O)[C@H]2[C@@H]3Cc1cccc2ccccc12 (relative stereo) [IB-103]	10 to 30
CC(C)CC1C2C3C=NC1(C(=O)NCc1ccccc1)CC3CN2Cc1ccc(Cl)cc1 (stereo not shown) [IIF-83]	< 5
NC(=O)CCNC(=O)C12NCC3CC1CN(Cc1ccccc1)C2C3Cc1cccc2ccccc12 (stereo not shown) [IB-813]	< 5
CC(C)C[C@@H]1[C@@H]2CN[C@@]3(C(=O)NCCO)[C@@H](C2)CN(Cc2cccc4ccccc24)[C@@H]13 (relative stereo) [IB-643]	10 to 30
CC(C)CCN1C[C@H]2C[C@]3(C(=O)NCc4ccc(F)cc4)NC[C@H]2[C@H]1[C@H]3CC(C)C (relative stereo) [IF-548]	10 to 30
O=C(O)CCN1CC2CC3CNC2(C(=O)NCc2ccc(O)cc2)C1C3Cc1cccc2ccccc12 (stereo not shown) [IB-516]	10 to 30
CC(C)CCNC(=O)[C@]12NC[C@@H]3C[C@H]1CN(Cc1ccccc1)[C@H]2[C@@H]3Cc1ccc(O)cc1 (relative stereo) [IB-678]	< 5
CCCCCCNC(=O)[C@]12NC[C@@H]3C[C@H]1CN(Cc1ccccc1)[C@H]2[C@@H]3CCCNC(=N)N (relative stereo) [IB-249]	10 to 30
CC(C)CCN1CC2CC3(C(=O)NCCC(=O)O)NCC2C1C3CCc1ccccc1 (stereo not shown) [IF-830]	10 to 30
CC(C)CCC1C2CNC3(C(=O)NCc4ccc(O)cc4)C(C2)CN(CCC(=O)O)C13 (stereo not shown) [IB-402]	10 to 30
CCCCCCNC(=O)C12NCC3CC1CN(CC(N)=O)C2C3CCC(C)C (stereo not shown) [IB-108]	10 to 30
NC(=O)CN1C[C@@H]2C[C@H]3CN[C@]2(C(=O)NCCc2ccccc2)[C@@H]1[C@@H]3Cc1cccc2ccccc12 (relative stereo) [IB-97]	< 5
CC(C)C[C@@H]1[C@@H]2CN[C@@]3(C(=O)NCCO)[C@@H](C2)CN(CCc2ccccc2)[C@@H]13 (relative stereo) [IB-641]	10 to 30
CC(C)CC1C2C3C=NC1(C(=O)NCc1ccccc1)CC3CN2Cc1ccc(N(C)C)cc1 (stereo not shown) [IIF-94]	5 to 10

Compound	IC50 [µM]
NC(=O)CN1C[C@H]2C[C@]3(C(=O)NCc4ccc(F)cc4)NC[C@H]2[C@H]1[C@H]3Cc1cccc2ccccc12 (relative stereo) [IF-97]	10 to 30
CC(C)CNC(=O)[C@]12NC[C@@H]3C[C@H]1CN(CC(C)C)[C@H]2[C@@H]3CCc1ccccc1 (relative stereo) [IB-633]	< 5
NC(=O)C[C@@H]1[C@@H]2[C@@H]3CN[C@@]1(C(=O)NCc1ccc(O)cc1)C[C@@H]3CN2CC1CCCCC1 (relative stereo) [IF-247]	10 to 30
N=C(N)NCCCNC(=O)[C@@]12C[C@@H]3CN(Cc4cccc5ccccc45)[C@@H]([C@@H]3CN1)[C@H]2CCc1ccccc1 (relative stereo) [IF-389]	< 5
CC(C)CC[C@@H]1[C@@H]2CN[C@@]3(C(=O)NCCO)[C@@H](C2)CN(CCc2ccccc2)[C@@H]13 (relative stereo) [IB-461]	10 to 30
O=C(NCCO)[C@@]12C[C@@H]3CN(CC4CCCCC4)[C@@H]([C@@H]3CN1)[C@H]2Cc1ccccc1 (relative stereo) [IF-486]	10 to 30
Cc1ccc(CN2CC3CC4CN(C(=O)CC(C)C)C3(C(=O)NCc3ccccc3)C2C4CC(C)C)cc1 (stereo not shown) [IB-883]	< 5
CCN1CC2CC3CN(Cc4ccc(C)cc4)C(C2CC(C)C)C31C(=O)NCc1ccccc1 (stereo not shown) [IB-880]	< 5
N=C(N)NCCC[C@@H]1[C@@H]2[C@@H]3CN[C@@]1(C(=O)NCc1cccc4ccccc14)C[C@@H]3CN2Cc1ccc(F)cc1 (relative stereo) [IF-297]	10 to 30
CCCCCCNC(=O)[C@@]12C[C@@H]3CN(CC(N)=O)[C@@H]([C@@H]3CN1)[C@H]2Cc1cccc2ccccc12 (relative stereo) [IF-110]	< 5
CC(C)CC[C@@H]1[C@@H]2[C@@H]3CN[C@@]1(C(=O)NCc1ccccc1)C[C@@H]3CN2Cc1ccc(F)cc1 (relative stereo) [IF-743]	10 to 30
CC(C)C[C@@H]1[C@@H]2[C@@H]3CN[C@@]1(C(=O)NCc1ccc(O)cc1)C[C@@H]3CN2Cc1cccc2ccccc12 (relative stereo) [IF-473]	< 5
CC(C)CNC(=O)[C@@]12C[C@@H]3CN(Cc4ccc(F)cc4)[C@@H]([C@@H]3CN1)[C@H]2CC(N)=O (relative stereo) [IF-262]	< 5
CC(C)CCNC(=O)[C@]12NC[C@@H]3C[C@H]1CN(CC(C)C)[C@H]2[C@@H]3CCCNC(=N)N (relative stereo) [IB-192]	< 5
CC(C)CCNC(=O)C12CC3CN(CCCNC(=N)N)C(C3CN1)C2Cc1cccc2ccccc12 (stereo not shown) [IF-356]	10 to 30
CC(C)CCN1C[C@H]2C[C@]3(C(=O)NCC(C)C)NC[C@H]2[C@H]1[C@H]3CCc1ccccc1 (relative stereo) [IF-635]	10 to 30
CC(C)NC(=O)[C@@]12C[C@@H]3CN(Cc4ccc(O)cc4)[C@@H]([C@@H]3CN1)[C@H]2Cc1cccc2ccccc12 (relative stereo) [IF-504]	10 to 30
CC(C)CNC(=O)C12CC3CN(CCC(=O)O)C(C3CN1)C2CCc1ccccc1 (stereo not shown) [IF-454]	10 to 30
CC(C)CCNC(=O)[C@@]12C[C@@H]3CN(Cc4ccc(F)cc4)[C@@H]([C@@H]3CN1)[C@H]2Cc1ccccc1 (relative stereo) [IF-584]	< 5
CC(C)CN1C[C@@H]2C[C@H]3CN[C@]2(C(=O)NCCC(N)=O)[C@@H]1[C@@H]3CCc1ccccc1 (relative stereo) [IB-539]	10 to 30

— EP4104902B1, “COMPOUNDS AND M[…] SAME” (priority 2020, dated 2021)
